Data from US9605003B2, “Heterocyclic compounds and uses thereof” (Infinity Pharmaceuticals, Inc., priority 2011, dated 2017).

Assays:
Balb/c splenic B cells = assay: B cell activation and proliferation assay (Alamar Blue); format: cell-based; settings: Mus musculus
Procedure: The ability of one or more subject compounds to inhibit B cell activitation and proliferation is determined according to standard procedures known in the art. For example, an in vitro cellular proliferation assay is established that measures the metabolic activity of live cells. The assay is performed in a 96 well microtiter plate using Alamar Blue reduction. Balb/c splenic B cells are purified over a Ficoll-Paque™ PLUS gradient followed by magnetic cell separation using a MACS B cell Isolation Kit (Miletenyi). Cells are plated in 90 μl at 50,000 cells/well in B Cell Media (RPMI+10% FBS+Penn/Strep+50 μM bME+5 mM HEPES). A compound provided herein is diluted in B Cell Media and added in a 10 μl volume. Plates are incubated for 30 min at 37° C. and 5% CO2 (0.2% DMSO final concentration). A 50 μl B cell stimulation cocktail is then added containing either 10 μg/ml LPS or 5 μg/ml F(ab′)2 Donkey anti-mouse IgM plus 2 ng/ml recombinant mouse IL4 in B Cell Media. Plates are incubated for 72 hours at 37° C. and 5% CO2. A volume of 15 μL of Alamar Blue reagent is added to each well and plates are incubated for 5 hours at 37° C. and 5% CO2. Alamar Blue fluoresce is read at 560Ex/590Em, and IC50 or EC50 values are calculated using GraphPad Prism 5.

PI3Kα = biological target: T1, PI3Kα (Homo sapiens, UniProt P42336); assay: PI3 Kinase HTRF assay, PI3Kα; format: biochemical; settings: Between 1 μM and 10 μM; read-out: PI3K α IC50
T1 construct: purchased Millipore Corporation 14-602-K
From the text: (§1) A PI3-Kinase HTRF® assay kit (cat No. 33-016) purchased from Millipore Corporation was used to screen compounds provided herein. This assay used specific, high affinity binding of the GRP1 pleckstrin homology (PH) domain to PIP3, the product of a Class 1A or 1B PI3 Kinase acting on its physiological substrate PIP2. During the detection phase of the assay, a complex was generated between the GST-tagged PH domain and biotinylated short chain PIP3. The biotinylated PIP3 and the GST-tagged PH domain recruited fluorophores (Streptavidin-Allophycocyanin and Europium-labeled anti-GST respectively) to form the fluorescence resonance energy transfer (FRET) architecture, generating a stable time-resolved FRET signal. The FRET complex was disrupted in a competitive manner by non-biotinylated PIP3, a product formed in the PI3 Kinase assay.
(§2) PI3 Kinase α, β, γ and δ activity was assayed using the PI3 Kinase HTRF® assay kit (catalogue No. 33-016) purchased from Millipore Corporation. Purified recombinant PI3Kα (catalogue No. 14-602-K), PI3Kβ (catalogue No. 14-603-K), PI3Kγ (catalogue No. 14-558-K) and PI3Kδ (catalogue No. 14-604-K) were obtained from Millipore Corporation. Purified recombinant PI3K enzyme was used to catalyze the phosphorylation of phosphatidylinositol 4,5-bisphosphate (PIP2 at 10 μM) to phosphatidylinositol 3,4,5-trisphosphate (PIP3) in the presence of 10 μM ATP. The assay was carried out in 384-well format and detected using a Perkin Elmer EnVision Xcite Multilabel Reader. Emission ratios were converted into percent inhibitions and imported into GraphPad Prism software. The concentration necessary to achieve inhibition of enzyme activity by 50% (IC50) was calculated using concentrations ranging from 20 μM to 0.1 nM (12-point curve). IC50 values were determined using a nonlinear regression model available in GraphPad Prism 5.

[1] = tested on: phospho-AKT in RAW 264.7 cells; assay: PI3Kγ selective cellular assay, phospho-AKT in C5a stimulated RAW 264.7 cells; format: cell-based; settings: Mus musculus, RAW264.7, RAW 264.7 cell model
From the text: A compound's ability in selectively inhibiting PI3Kγ can be assessed using RAW264.7 macrophages. Briefly, serum-starved PAW264.7 cells are stimulated with a known GPCR agonist C5a. (See, e.g., Camps et al., Nature Medicine (2005) 11(9): 936-943). Cells can be treated with test compounds prior to, simultaneously with, or subsequent to the stimulation by C5a. RAW 264.7 cells respond to the complement component fragment C5a through activation of the C5a receptor, and the C5a receptor activates macrophages and induces cell migration. Test compounds' ability to inhibit C5a-mediated AKT phosphorylation is indicative of selective inhibition of PI3Kγ. Thus, by monitoring the reduction of phospho-AKT in stimulated RAW 264.7 cells (using for example, phospho-AKT antibodies), a compound's potential efficacy in selectively inhibiting PI3Kγ can be assessed.
Certain compounds provided herein (e.g., Compounds 5, 38, 103, 105, 106, 107, 108, and 109) were tested in RAW 264.7 cell model using procedures as described above.

[2] = tested on: phospho-AKT in RAJI cells; assay: PI3Kδ selective cellular assay, phospho-AKT in anti-IgM stimulated RAJI cells; format: cell-based; settings: Homo sapiens; RAJI cell model
From the text: A compound's ability in selectively inhibiting PI3Kδ can be assessed using RAJI cells, i.e., B lymphocyte cells derived from lymphoma patients. Briefly, serum-starved RAJI cells are stimulated with anti-human IgM, thereby causing signaling through the B-cell receptors, as described in, for example, He et al., Leukemia Research (2009) 33: 798-802. B-cell receptor signaling is important for the activation, differentiation, and survival of B cells and certain B-cell derived cancers. Reduction of phospho-AKT is indicative of compounds that may inhibit B-cell proliferation and function in certain diseases. By monitoring the reduction of phospho-AKT in stimulated RAJI cells (using for example, phospho-AKT antibodies), a compound's potential efficacy in selectively inhibiting PI3Kδ can be assessed.
Certain compounds provided herein (e.g., Compounds 5, 38, 103, 105, 106, 107, 108, and 109) were tested in RAJI cell model using procedures as described above.

PI3Kβ = biological target: T2, PI3Kβ (Homo sapiens, UniProt P42338); assay: PI3 Kinase HTRF assay, PI3Kβ; format: biochemical; settings: Between 1 μM and 10 μM; read-out: PI3K β IC50
T2 construct: purchased Millipore Corporation 14-603-K
From the text: as §1, §2

PI3Kγ = biological target: T3, PI3Kγ (Homo sapiens, UniProt P48736); assay: PI3 Kinase HTRF assay, PI3Kγ; format: biochemical; settings: Between 1 μM and 10 μM; read-out: PI3K γ IC50
T3 construct: purchased Millipore Corporation 14-558-K
From the text: as §1, §2

[3] = range between 100 nM and 1 μM (bounds carry own units)

T1 sequence (P42336 whole entry): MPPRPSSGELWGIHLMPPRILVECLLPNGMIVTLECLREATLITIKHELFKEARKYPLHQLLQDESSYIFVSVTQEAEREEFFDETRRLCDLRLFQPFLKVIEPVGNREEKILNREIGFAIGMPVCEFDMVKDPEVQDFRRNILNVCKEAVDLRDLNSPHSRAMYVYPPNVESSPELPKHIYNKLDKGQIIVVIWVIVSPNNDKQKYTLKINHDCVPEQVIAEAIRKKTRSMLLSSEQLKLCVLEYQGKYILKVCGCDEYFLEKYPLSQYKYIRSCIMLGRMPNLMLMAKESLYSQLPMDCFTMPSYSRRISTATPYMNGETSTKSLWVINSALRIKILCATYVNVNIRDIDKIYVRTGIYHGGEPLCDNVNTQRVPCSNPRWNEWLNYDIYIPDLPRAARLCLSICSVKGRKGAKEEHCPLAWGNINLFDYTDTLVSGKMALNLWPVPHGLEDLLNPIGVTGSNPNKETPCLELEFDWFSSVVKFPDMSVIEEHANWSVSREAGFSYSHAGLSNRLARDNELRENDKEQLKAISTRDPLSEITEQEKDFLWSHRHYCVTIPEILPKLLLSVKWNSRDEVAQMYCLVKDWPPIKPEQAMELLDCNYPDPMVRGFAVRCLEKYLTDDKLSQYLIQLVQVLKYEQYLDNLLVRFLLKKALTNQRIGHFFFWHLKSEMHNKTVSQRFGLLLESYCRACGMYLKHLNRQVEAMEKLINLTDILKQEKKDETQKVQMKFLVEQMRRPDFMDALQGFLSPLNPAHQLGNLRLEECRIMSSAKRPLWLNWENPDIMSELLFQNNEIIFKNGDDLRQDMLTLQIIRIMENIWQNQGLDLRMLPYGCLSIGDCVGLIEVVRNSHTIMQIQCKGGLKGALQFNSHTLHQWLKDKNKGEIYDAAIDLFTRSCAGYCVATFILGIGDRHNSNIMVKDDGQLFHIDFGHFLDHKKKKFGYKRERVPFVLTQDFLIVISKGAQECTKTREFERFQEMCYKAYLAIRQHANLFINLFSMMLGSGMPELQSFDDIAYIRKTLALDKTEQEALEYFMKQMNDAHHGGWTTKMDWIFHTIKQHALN
T1 sequence (P27986 whole entry partner): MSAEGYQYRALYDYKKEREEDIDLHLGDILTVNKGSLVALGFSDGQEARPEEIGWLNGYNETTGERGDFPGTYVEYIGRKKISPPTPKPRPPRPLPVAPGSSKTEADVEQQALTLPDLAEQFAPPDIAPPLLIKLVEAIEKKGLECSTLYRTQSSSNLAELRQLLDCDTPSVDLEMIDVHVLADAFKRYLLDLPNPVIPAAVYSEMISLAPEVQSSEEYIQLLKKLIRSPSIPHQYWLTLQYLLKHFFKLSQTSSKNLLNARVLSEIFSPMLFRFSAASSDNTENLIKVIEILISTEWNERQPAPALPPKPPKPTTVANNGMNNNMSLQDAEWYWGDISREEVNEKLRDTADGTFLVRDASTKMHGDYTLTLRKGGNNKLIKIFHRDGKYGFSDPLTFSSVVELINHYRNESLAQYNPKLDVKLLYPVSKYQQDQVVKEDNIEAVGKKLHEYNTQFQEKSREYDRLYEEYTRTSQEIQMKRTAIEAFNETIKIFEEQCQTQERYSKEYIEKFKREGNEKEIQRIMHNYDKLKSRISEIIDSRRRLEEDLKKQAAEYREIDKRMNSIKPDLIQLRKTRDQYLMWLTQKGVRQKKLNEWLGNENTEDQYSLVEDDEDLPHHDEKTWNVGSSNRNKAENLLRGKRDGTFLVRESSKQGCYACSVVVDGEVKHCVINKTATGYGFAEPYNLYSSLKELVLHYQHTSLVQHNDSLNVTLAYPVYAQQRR
T3 sequence (P48736 whole entry): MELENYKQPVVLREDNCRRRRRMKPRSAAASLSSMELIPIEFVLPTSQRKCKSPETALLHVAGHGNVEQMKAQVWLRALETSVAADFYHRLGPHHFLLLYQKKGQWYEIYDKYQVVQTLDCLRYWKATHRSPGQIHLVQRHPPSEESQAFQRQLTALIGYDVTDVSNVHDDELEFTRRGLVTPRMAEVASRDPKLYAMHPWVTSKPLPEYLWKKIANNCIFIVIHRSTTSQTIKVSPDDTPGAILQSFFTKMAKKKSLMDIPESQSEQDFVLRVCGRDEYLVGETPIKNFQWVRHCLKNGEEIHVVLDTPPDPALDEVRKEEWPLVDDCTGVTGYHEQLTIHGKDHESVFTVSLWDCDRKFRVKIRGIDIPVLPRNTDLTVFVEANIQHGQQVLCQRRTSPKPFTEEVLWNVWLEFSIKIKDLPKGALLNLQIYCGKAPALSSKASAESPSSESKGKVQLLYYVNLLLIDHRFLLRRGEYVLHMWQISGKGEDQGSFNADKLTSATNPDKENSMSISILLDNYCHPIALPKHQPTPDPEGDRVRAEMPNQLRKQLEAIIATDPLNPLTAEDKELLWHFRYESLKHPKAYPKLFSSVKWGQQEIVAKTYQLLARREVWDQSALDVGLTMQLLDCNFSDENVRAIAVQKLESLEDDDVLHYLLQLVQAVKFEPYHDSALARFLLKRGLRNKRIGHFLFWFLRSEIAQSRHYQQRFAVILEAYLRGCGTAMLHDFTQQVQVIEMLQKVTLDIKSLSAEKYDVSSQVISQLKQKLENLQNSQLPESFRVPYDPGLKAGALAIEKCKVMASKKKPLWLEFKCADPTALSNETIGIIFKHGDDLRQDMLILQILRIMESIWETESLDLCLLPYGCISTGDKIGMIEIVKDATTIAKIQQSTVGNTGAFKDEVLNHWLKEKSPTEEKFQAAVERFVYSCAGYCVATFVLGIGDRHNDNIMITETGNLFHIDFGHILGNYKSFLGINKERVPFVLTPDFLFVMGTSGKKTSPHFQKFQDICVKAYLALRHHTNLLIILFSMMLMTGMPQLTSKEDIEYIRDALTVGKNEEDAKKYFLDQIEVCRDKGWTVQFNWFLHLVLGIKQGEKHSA
T2 sequence (P42338 whole entry): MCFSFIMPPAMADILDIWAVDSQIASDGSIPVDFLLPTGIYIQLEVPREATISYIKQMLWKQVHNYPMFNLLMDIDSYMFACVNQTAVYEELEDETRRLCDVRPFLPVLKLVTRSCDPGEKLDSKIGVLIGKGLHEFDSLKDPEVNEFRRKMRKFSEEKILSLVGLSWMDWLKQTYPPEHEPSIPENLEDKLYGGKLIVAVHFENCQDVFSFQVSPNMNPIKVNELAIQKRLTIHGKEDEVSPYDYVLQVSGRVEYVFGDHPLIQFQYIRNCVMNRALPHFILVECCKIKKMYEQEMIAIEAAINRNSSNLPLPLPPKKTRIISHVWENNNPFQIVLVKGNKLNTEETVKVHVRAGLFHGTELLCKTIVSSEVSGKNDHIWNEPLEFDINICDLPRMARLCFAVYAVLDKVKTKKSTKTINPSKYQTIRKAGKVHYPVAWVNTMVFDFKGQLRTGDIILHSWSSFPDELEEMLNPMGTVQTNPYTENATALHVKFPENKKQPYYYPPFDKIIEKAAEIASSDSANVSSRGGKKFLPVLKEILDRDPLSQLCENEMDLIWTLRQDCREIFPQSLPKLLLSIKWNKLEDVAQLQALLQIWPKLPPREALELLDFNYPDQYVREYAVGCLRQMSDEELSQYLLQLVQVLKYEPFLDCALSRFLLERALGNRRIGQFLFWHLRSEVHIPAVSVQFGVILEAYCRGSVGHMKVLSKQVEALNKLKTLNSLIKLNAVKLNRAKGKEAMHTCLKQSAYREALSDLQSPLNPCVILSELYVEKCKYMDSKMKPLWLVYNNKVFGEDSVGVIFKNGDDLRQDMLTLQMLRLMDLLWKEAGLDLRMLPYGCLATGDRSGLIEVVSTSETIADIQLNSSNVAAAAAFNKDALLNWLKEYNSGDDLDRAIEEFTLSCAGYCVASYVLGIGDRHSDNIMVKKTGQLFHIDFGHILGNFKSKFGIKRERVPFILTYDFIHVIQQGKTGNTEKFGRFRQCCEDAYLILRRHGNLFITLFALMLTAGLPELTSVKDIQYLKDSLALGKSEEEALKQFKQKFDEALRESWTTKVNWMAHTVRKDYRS
T2 sequence (P27986 2-724 partner limits assumed): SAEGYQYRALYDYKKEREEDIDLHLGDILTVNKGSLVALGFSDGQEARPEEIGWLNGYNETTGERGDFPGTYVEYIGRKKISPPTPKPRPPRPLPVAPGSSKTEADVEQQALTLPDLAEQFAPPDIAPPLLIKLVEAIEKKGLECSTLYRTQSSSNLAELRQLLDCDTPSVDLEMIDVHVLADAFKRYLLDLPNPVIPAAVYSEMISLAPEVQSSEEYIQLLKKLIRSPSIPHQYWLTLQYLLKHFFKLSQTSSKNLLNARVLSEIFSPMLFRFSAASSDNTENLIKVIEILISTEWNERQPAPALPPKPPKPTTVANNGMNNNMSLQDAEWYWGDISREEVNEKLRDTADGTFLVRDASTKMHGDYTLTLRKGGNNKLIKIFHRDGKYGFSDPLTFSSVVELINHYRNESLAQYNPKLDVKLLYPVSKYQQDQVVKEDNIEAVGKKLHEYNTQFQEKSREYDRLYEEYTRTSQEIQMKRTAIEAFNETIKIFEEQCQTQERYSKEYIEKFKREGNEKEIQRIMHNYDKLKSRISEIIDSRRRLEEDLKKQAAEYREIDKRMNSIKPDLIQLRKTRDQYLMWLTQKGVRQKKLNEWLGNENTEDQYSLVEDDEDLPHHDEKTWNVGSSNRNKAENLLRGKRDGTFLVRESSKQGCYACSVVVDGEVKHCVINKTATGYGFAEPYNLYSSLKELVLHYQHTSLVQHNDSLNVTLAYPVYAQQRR

Compound	EC50 (Balb/c splenic B cells; Less than 100 nanoMolar)	IC50 (PI3Kα)	IC50 (PI3Kβ)	other results
Cc1cccc2cc([C@H](C)Nc3ncnc4scnc34)n(-c3cccc(F)c3)c(=O)c12 [Compound 100]	< 100 nM	1000 to 10000 nM		
C[C@H](Nc1ncnc2scnc12)c1cc2cccc(-c3cncc(N)c3)c2c(=O)n1-c1ccccc1 [Compound 109]		1000 to 10000 nM		IC50 [1, 3]: 100 to 1000 nM; IC50 [2]: < 100 nM
COc1ncc(-c2cccc3cc([C@H](C)Nc4ncnc5scnc45)n(-c4ccccc4)c(=O)c23)cc1C [Compound 56]	< 100 nM	1000 to 10000 nM	1000 to 10000 nM	
C[C@H](Nc1ncnc2scnc12)c1cc2cccc(-c3cnn(CCN4CCOCC4)c3)c2c(=O)n1-c1ccccc1 [Compound 48]	< 100 nM	1000 to 10000 nM		
C[C@H](Nc1ncnc2scc(-c3ccccc3)c12)c1cc2cccc(Cl)c2c(=O)n1-c1ccccc1 [Compound 98]				IC50 (PI3Kγ): 1000 to 10000 nM
COc1ncc(-c2cccc3cc([C@H](C)Nc4ccnc5scnc45)n(-c4ccccc4)c(=O)c23)cn1 [Compound 89]	< 100 nM	1000 to 10000 nM		
Cc1ccc(-c2cccc3cc([C@H](C)Nc4ncnc5scnc45)n(-c4ccccc4)c(=O)c23)cn1 [Compound 6]	< 100 nM	1000 to 10000 nM	1000 to 10000 nM	
C[C@H](Nc1ncnc2scnc12)c1cc2cccc(-c3ccc(N(C)C)nc3)c2c(=O)n1-c1ccccc1 [Compound 47]	< 100 nM	1000 to 10000 nM		
COc1ccc(-c2cccc3cc([C@H](C)Nc4ncnc5scnc45)n(-c4ccccc4)c(=O)c23)cc1 [Compound 44]	< 100 nM	1000 to 10000 nM	1000 to 10000 nM	
C[C@H](Nc1ncnc2scnc12)c1cc2cccc(Cl)c2c(=O)n1C [Compound 81]	< 100 nM	1000 to 10000 nM		
CCCCc1cccc2cc([C@H](C)Nc3ncnc4scnc34)n(-c3ccccc3)c(=O)c12 [Compound 96]	< 100 nM	1000 to 10000 nM	1000 to 10000 nM	
C[C@H](Nc1ncnc2scnc12)c1cc2cccc(C=O)c2c(=O)n1-c1ccccc1 [Compound 83]	< 100 nM	1000 to 10000 nM		
Cc1ncc(-c2cccc3cc([C@H](C)Nc4ncnc5scnc45)n(C4CC4)c(=O)c23)cn1 [Compound 62]	< 100 nM	1000 to 10000 nM	1000 to 10000 nM	
Cc1ncc(-c2cccc3cc([C@H](C)Nc4ncnc5scnc45)n(-c4ccon4)c(=O)c23)cn1 [Compound 107]				IC50 [1, 3]: 100 to 1000 nM; IC50 [2]: < 100 nM
C[C@H](Nc1ncnc2scnc12)c1cc2cccc(C(=O)N3CCOCC3)c2c(=O)n1-c1ccccc1 [Compound 86]				IC50 (PI3Kγ): 1000 to 10000 nM
Cc1sc2ncnc(N[C@@H](C)c3cc4cccc(Cl)c4c(=O)n3-c3ccccc3)c2c1C [Compound 97]				EC50 (Balb/c splenic B cells; Between 1 μM and 10 μM): 1000 to 10000 nM; IC50 (PI3Kγ): 1000 to 10000 nM
C[C@H](Nc1ncnc2scnc12)c1cc2cccc(-c3ccnnc3)c2c(=O)n1-c1ccccc1 [Compound 92]	< 100 nM	1000 to 10000 nM		
C[C@H](Nc1ncnc2scnc12)c1cc2cccc(Cl)c2c(=O)n1-c1ccon1 [Compound 105]				IC50 [1, 3]: 100 to 1000 nM; IC50 [2]: < 100 nM
C[C@H](Nc1ncnc2scnc12)c1cc2cccc(-c3ccc(F)c(F)c3)c2c(=O)n1-c1ccccc1 [Compound 22]	< 100 nM	1000 to 10000 nM		
COc1ncc(-c2cccc3cc([C@H](C)Nc4ncnc5scnc45)n(-c4ccccc4)c(=O)c23)cc1C(F)(F)F [Compound 58]	< 100 nM	1000 to 10000 nM	1000 to 10000 nM	
C[C@H](Nc1ncnc2scnc12)c1cc2cccc(-c3cnn(C)c3)c2c(=O)n1-c1cccc(F)c1 [Compound 10]	< 100 nM	1000 to 10000 nM	1000 to 10000 nM	
C[C@H](Nc1ncnc2scnc12)c1cc2cccc(-c3cnc(OCc4ccccc4)nc3)c2c(=O)n1-c1ccccc1 [Compound 53]	< 100 nM	1000 to 10000 nM	1000 to 10000 nM	
C[C@H](Nc1ccnc2scnc12)c1cc2cccc(Cl)c2c(=O)n1-c1cccc(F)c1 [Compound 90]	< 100 nM	1000 to 10000 nM		
COc1ncc(-c2cccc3cc([C@H](C)Nc4ncnc5scnc45)n(C4CC4)c(=O)c23)cn1 [Compound 61]	< 100 nM	1000 to 10000 nM	1000 to 10000 nM	
COc1ncc(-c2cccc3cc([C@H](C)Nc4ncnc5scnc45)n(-c4cccc(F)c4)c(=O)c23)cn1 [Compound 60]	< 100 nM	1000 to 10000 nM		
C[C@H](Nc1ncnc2scnc12)c1cc2cccc(/C=C/c3ccccc3)c2c(=O)n1-c1ccccc1 [Compound 49]		1000 to 10000 nM	1000 to 10000 nM	EC50 (Balb/c splenic B cells; Between 100 nM and 1 μM): 100 to 1000 nM
C[C@H](Nc1ncnc2scnc12)c1cc2cccc(-c3cncc(F)c3)c2c(=O)n1-c1ccccc1 [Compound 21]	< 100 nM	1000 to 10000 nM		
Cc1c(-c2cccc3cc([C@H](C)Nc4ncnc5scnc45)n(-c4ccccc4)c(=O)c23)cnn1C [Compound 43]	< 100 nM	1000 to 10000 nM	1000 to 10000 nM	
CC(C)n1c([C@H](C)Nc2ncnc3scnc23)cc2cccc(-c3ccnnc3)c2c1=O [Compound 108]				IC50 [1]: 1000 to 10000 nM; IC50 [2]: < 100 nM
